From US20250326771A1, “PIPERAZINE DERIVATIVES USEFUL IN HIV THERAPY” (VIIV HEALTHCARE COMPANY, priority 2022, published 2025) come the findings set out here.

The target of one experiment is XIAP-BIR3 (Homo sapiens (Human), UniProt P98170). The experiment is described as follows: BIR binding assay (FRET competition), XIAP BIR3. As for the experimental part:
(§1) The BIR domain binding assays are FRET based competition assays that utilize His-tagged versions of each of the BIR2 and BIR3 domains from cIAP1, cIAP2, and XIAP (each domain assayed separately) each at a custom optimal concentration and a probe, 200 nM SMAC/DIABLO peptide […] labelled with AlexaFluor647 (part #crb 1110326h, Discovery Peptides). The assay is conducted in 50 mM HEPES, […], 1 mM CHAPS, 5% Glycerol, 1 mM DTT, in dI water with a final pH of 7.4 and final volume of 20 uL. Final protein domain concentrations are: 50 nM cIAP1-BIR3 (Part #APT-11-370 Reaction Biology), 100 nM XIAP-BIR3 (Part #APT-11-351 Reaction Biology), 200 nM XIAP-BIR2 (Part #APT-11-470 Reaction Biology), 325 nM cIAP2-BIR2 (Part #APT-11-489 Reaction Biology), 50 nM cIAP2-BIR3 (Part #APT-11-372 Reaction Biology), 325 nM cIAP1-BIR2 (Part #APT-11-487 Reaction Biology). Compounds were plated using a HP Tecan D300 printer in a final total volume of 202 nl and DMSO concentration normalized across the 15-point, 3-fold dilution series. Peptide and probe were prepared at 2× relative to the concentrations above in binding buffer, 10 uL added to the prepared compound plates, and incubated for 60 minutes. LANCE Eu-W1024 (part #AD0401 Perkin Elmer #, vendor) was prepared at 2× concentration in binding buffer for final concentration of 2 nM, 10 uL added to each well, and plates incubated for 30 minutes. Plates were read on an ENVISION multifunction plate reader with […] laser excitation to obtain the 615 nm/665 nm emission ratio as indicative of probe:protein proximity. Data was analyzed using GraphPad PRISM and curves fit using log(inhibitor) vs. response—Variable slope (four […] method to obtain IC50 and pIC50 values.

For experiment [1], the system named is Jurkat HIV-luciferase clones. The experiment is described as follows: Jurkat latency reversal assay. In kind it is cell-based. The settings on record: Homo sapiens, 48 h; Jurkat latency reversal assay potency; read-out: Jurkat pEC50 (converted). The protocol:
Jurkat HIV-luciferase clones were maintained in RPMI medium 1640 (Gibco by Life Technologies) containing 10% (vol/vol) fetal bovine serum (SAFC/Sigma-Aldrich) and 25 units/mL penicillin, 25 units/mL streptomycin (Gibco by Life Technologies), and were split 1:4 every 3 to 4 days to maintain a cell density of ˜0.3 to 1 million cells/mL. The Jurkat clones were maintained with the addition of 500 nM EFV in the medium. Three Jurkat cell clones (C16, 115, and N6), each harboring one or two integrated HIV proviruses expressing the luciferase reporter gene, were added at equal amounts for a total of 5,000 cells per well to 384-well plates containing compound titrations. Dose-response testing was performed on compounds dissolved in dimethyl sulfoxide (DMSO; Fisher Scientific, Merelbeke, Belgium) dispensed in duplicate serial 3-fold, 14-point titrations using a D300e Digital Droplet Dispenser (Hewlett-Packard) to give final assay concentrations of 10 μM to […] in 50 μL of medium at 0.5% DMSO (vol/vol) final concentration. Cells and compound were incubated at 37° C. for 48 hours, unless otherwise indicated, followed by the addition of 20 μL of Steady-Glo® Luciferase (Promega). Luminescence resulting from the induction of the virally expressed luciferase was measured using an EnVision 2102 Multilabel Plate Reader (Perkin Elmer). Dose-response relationships were analyzed with GraphPad PRISM 6 using a four-parameter logistic regression model to calculate the concentration of compound that gives half-maximal response (EC50) and the maximal percent activation compared to the vehicle control.

For another experiment, the target named is cIAP2-BIR3 (Homo sapiens (Human), UniProt Q13489). The experiment is described as follows: BIR binding assay (FRET competition), cIAP2 BIR3. The protocol: as §1
Another experiment deals with cIAP1-BIR2 (Homo sapiens (Human), UniProt Q13490). The experiment is described as follows: BIR binding assay (FRET competition), cIAP1 BIR2. The protocol:
as §1

Another experiment concerns the target cIAP1-BIR3 (Homo sapiens (Human), UniProt Q13490). The experiment is described as follows: BIR binding assay (FRET competition), cIAP1 BIR3. The note with it: for cIAP1 BIR3 vs BIR2 separation window: fold separation (FS) for cIAP1. As for the experimental part: as §1

Chain of cIAP1-BIR3 (Q13490 253-363): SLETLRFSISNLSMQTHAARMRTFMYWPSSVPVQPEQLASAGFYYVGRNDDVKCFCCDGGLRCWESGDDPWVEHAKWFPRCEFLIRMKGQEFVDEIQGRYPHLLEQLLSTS
Chain of cIAP2-BIR3 (Q13489 238-349): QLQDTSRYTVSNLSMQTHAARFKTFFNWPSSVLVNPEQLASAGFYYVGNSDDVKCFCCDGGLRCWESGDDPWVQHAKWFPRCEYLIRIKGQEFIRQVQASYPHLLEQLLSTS
Chain of XIAP-BIR3 (P98170 241-356): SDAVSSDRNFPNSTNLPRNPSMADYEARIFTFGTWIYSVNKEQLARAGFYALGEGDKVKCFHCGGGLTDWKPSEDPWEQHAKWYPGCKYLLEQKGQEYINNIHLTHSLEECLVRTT
Chain of cIAP1-BIR2 (Q13490 173-257): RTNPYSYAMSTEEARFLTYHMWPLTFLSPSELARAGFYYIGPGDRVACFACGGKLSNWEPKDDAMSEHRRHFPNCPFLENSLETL

Turning to `C[C@@H]1CN(CC(=O)N2CC(C)(C)c3ncc(Cc4ccc(Cl)cc4)cc32)[C@@H](CN2CCO[C@H](COc3cccc(OC[C@@H]4CN(C[C@H]5CN[C@H](C)CN5CC(=O)N5CC(C)(C)c6ncc(Cc7ccc(Cl)cc7)cc65)CCO4)c3)C2)CN1` [Compound 147], the IC50 lay in the range of 31.6 to 501 nM on XIAP-BIR3, 15.8 to 31.6 nM on cIAP2-BIR3, 3160 to 10000 nM at cIAP1-BIR2 and 15.8 to 31.6 nM at cIAP1-BIR3. Moreover, the EC50 in experiment [1] was 12.6 to 63.1 nM. Also, the “cIAP1 BIR3 vs BIR2 separation window” value on cIAP1-BIR3 was “+++ (10,000>FS>1,000)”.
Consider `C[C@@H]1CN(CC(=O)N2CC(C)(C)c3[nH]c(=O)c(Cc4ccc(F)cc4)cc32)[C@@H](CN2CCO[C@H](COc3ccc(C(=O)c4ccc(OC[C@@H]5CN(C[C@H]6CN[C@H](C)CN6CC(=O)N6CC(C)(C)c7[nH]c(=O)c(Cc8ccc(F)cc8)cc76)CCO5)cc4)cc3)C2)CN1` [Example 54, 1,1′-(2,2′-((3R,3′R,6R,6′R)-(((2S,2'S)-(((carbonylbis(4,1-phenylene))bis(oxy))bis(methylene))bis(morpholine-2,4-diyl))bis(methylene))bis(3-methylpiperazine-6,1-diyl))bis(acetyl))bis(6-(4-fluorobenzyl)-3,3-dimethyl-1,2,3,4-tetrahydro-5H-pyrrolo[3,2-b]pyridin-5-one)], for which the IC50 at XIAP-BIR3, on cIAP2-BIR3 and at cIAP1-BIR3 was 15.8 to 31.6 nM each time. Moreover, the EC50 in experiment [1] was 0.49 to 12.6 nM.
`Cc1ccc(Cc2cnc3c(c2)N(C(=O)CN2C[C@@H](C)NC[C@@H]2CN2CCO[C@H](COc4cccc(OC[C@@H]5CN(C[C@H]6CN[C@H](C)CN6CC(=O)N6CC(C)(C)c7ncc(Cc8ccc(C)cc8)cc76)CCO5)c4)C2)CC3(C)C)cc1` [Compound 148]: the IC50 at XIAP-BIR3 lay within 31.6 to 501 nM; at cIAP2-BIR3, 15.8 to 31.6 nM; at cIAP1-BIR2 it was 10000 to 51300 nM; on cIAP1-BIR3 it was 15.8 to 31.6 nM. Also, in experiment [1], the EC50 is 12.6 to 63.1 nM. Also, at cIAP1-BIR3, the “cIAP1 BIR3 vs BIR2 separation window” value is on record as “++++ (FS>10,000)”.
As for `C[C@@H]1CN(CC(=O)N2CC(C)(C)c3[nH]c(=O)c(Cc4ccc(F)cc4)cc32)[C@@H](CN2CCN(S(=O)(=O)c3ccc(Oc4ccc(S(=O)(=O)N5CCN(C[C@H]6CN[C@H](C)CN6CC(=O)N6CC(C)(C)c7[nH]c(=O)c(Cc8ccc(F)cc8)cc76)[C@H](C)C5)cc4)cc3)C[C@H]2C)CN1` [Example 30, 2,2′-((3R,3′R,6R,6′R)-(((2R,2′R)-(oxybis(4,1-phenylenesulfonyl))bis(2-methylpiperazine-4,1-diyl))bis(methylene))bis(3-methylpiperazine-6,1-diyl))bis(1-(6-(4-fluorobenzyl)-3,3-dimethyl-5-oxo-2,3,4,5-tetrahydro-1H-pyrrolo[3,2-b]pyridin-1-yl)ethan-1-one)], the figures for the IC50 at XIAP-BIR3, on cIAP2-BIR3 and on cIAP1-BIR3 were 31.6 to 501 nM, 15.8 to 31.6 nM and 31.6 to 501 nM, respectively. Further, the EC50 in experiment [1] was 316 to 3310 nM.
For the compound `C[C@@H]1CN(CC(=O)N2CC(C)(C)c3[nH]c(=O)c(Cc4ccc(F)cc4)cc32)[C@@H](CN2CCO[C@H](COc3ccc(C(C)(C)c4cccc(C(C)(C)c5ccc(OC[C@@H]6CN(C[C@H]7CN[C@H](C)CN7CC(=O)N7CC(C)(C)c8[nH]c(=O)c(Cc9ccc(F)cc9)cc87)CCO6)cc5)c4)cc3)C2)CN1` (stereo in doubt) [Example 61, 1,1′-(2,2′-((3R,3′R,6R,6′R)-(((2S,2'S)-((((1,3-phenylenebis(propane-2,2-diyl))bis(4,1-phenylene))bis(oxy))bis(methylene))bis(morpholine-2,4-diyl))bis(methylene))bis(3-methylpiperazine-6,1-diyl))bis(acetyl))bis(6-(4-fluorobenzyl)-3,3-dimethyl-1,2,3,4-tetrahydro-5H-pyrrolo[3,2-b]pyridin-5-one)], the IC50 on XIAP-BIR3, on cIAP2-BIR3 and at cIAP1-BIR3 was 31.6 to 501 nM each time. Also, in experiment [1], the EC50 is 12.6 to 63.1 nM.
As to `C[C@@H]1CN(CC(=O)N2CC(C)(C)c3[nH]c(=O)c(Cc4ccc(F)cc4)cc32)[C@@H](CN2CCO[C@H](COc3ccc(C(C)(C)c4ccc(OC[C@@H]5CN(C[C@H]6CN[C@H](C)CN6CC(=O)N6CC(C)(C)c7[nH]c(=O)c(Cc8ccc(F)cc8)cc76)CCO5)cc4)cc3)C2)CN1` [Example 56, 1,1′-(2,2′-((3R,3′R,6R,6′R)-(((2S,2'S)-(((propane-2,2-diylbis(4,1-phenylene))bis(oxy))bis(methylene))bis(morpholine-2,4-diyl))bis(methylene))bis(3-methylpiperazine-6,1-diyl))bis(acetyl))bis(6-(4-fluorobenzyl)-3,3-dimethyl-1,2,3,4-tetrahydro-5H-pyrrolo[3,2-b]pyridin-5-one)], the IC50 at XIAP-BIR3, on cIAP2-BIR3 and at cIAP1-BIR3 was 31.6 to 501 nM each time. Besides, the EC50 in experiment [1] is 12.6 to 63.1 nM.
Turning to `C[C@@H]1CN(CC(=O)N2CC(C)(C)c3[nH]c(=O)c(Cc4ccc(F)cc4)cc32)[C@@H](CN2CCC[C@@H](NC(=O)CCCCCCCCCCCCC(=O)N[C@@H]3CCCN(C[C@H]4CN[C@H](C)CN4CC(=O)N4CC(C)(C)c5[nH]c(=O)c(Cc6ccc(F)cc6)cc54)C3)C2)CN1` [Example 46, N1,N^14-bis((R)-1-(((2R,5R)-1-(2-(6-(4-fluorobenzyl)-3,3-dimethyl-5-oxo-2,3,4,5-tetrahydro-1H-pyrrolo[3,2-b]pyridin-1-yl)-2-oxoethyl)-5-methylpiperazin-2-yl)methyl)piperidin-3-yl)tetradecanediamide], the “XIAP BIR3 (pIC50)” value at XIAP-BIR3 (FRET competition binding) is reported as “+ (7.50>pIC50>=6.30)”. Further, the EC50 in experiment [1] was 63.1 to 316 nM. Further, the “cIAP2 BIR3 (pIC50)” value on cIAP2-BIR3 (FRET competition binding) is “++ (7.80>pIC50>=7.50)”. This compound yielded an IC50 at cIAP1-BIR2 of 3160 to 10000 nM. Besides, the “cIAP1 BIR3 (pIC50)” value at cIAP1-BIR3 (FRET competition binding) is “++ (7.80>pIC50>=7.50)”. Also, the “cIAP1 BIR3 vs BIR2 separation window” value on cIAP1-BIR3 is on record as “+++ (10,000>FS>1,000)”.
On to `C[C@@H]1CN(CC(=O)N2CC(C)(C)c3ncc(Cc4ccc(F)cc4)cc32)[C@@H](CN2CCN(S(=O)(=O)c3cccc(S(=O)(=O)N4CCN(C[C@H]5CN[C@H](C)CN5CC(=O)N5CC(C)(C)c6ncc(Cc7ccc(F)cc7)cc65)[C@H](C)C4)c3)C[C@H]2C)CN1` [Example 36, 2,2′-((3R,3′R,6R,6′R)-(((2R,2′R)-(1,3-phenylenedisulfonyl)bis(2-methylpiperazine-4,1-diyl))bis(methylene))bis(3-methylpiperazine-6,1-diyl))bis(1-(6-(4-fluorobenzyl)-3,3-dimethyl-2,3-dihydro-1H-pyrrolo[3,2-b]pyridin-1-yl)ethan-1-one)], for which the IC50 on XIAP-BIR3 lay within 31.6 to 501 nM; on cIAP2-BIR3, 15.8 to 31.6 nM; on cIAP1-BIR2, 3160 to 10000 nM; at cIAP1-BIR3, 15.8 to 31.6 nM. The EC50 in experiment [1] was 0.49 to 12.6 nM. Also, at cIAP1-BIR3, the “cIAP1 BIR3 vs BIR2 separation window” value is reported as “+++ (10,000>FS>1,000)”.
As to `C[C@@H]1CN(CC(=O)N2CC(C)(C)c3ncc(Cc4ccc(C(F)(F)F)cc4)cc32)[C@@H](CN2CCO[C@H](COc3cccc(OC[C@@H]4CN(C[C@H]5CN[C@H](C)CN5CC(=O)N5CC(C)(C)c6ncc(Cc7ccc(C(F)(F)F)cc7)cc65)CCO4)c3)C2)CN1` [Compound 149], the IC50 at XIAP-BIR3 fell in the range of 31.6 to 501 nM; on cIAP2-BIR3 it was 31.6 to 501 nM; on cIAP1-BIR2 it was 10000 to 51300 nM; at cIAP1-BIR3, 31.6 to 501 nM. In experiment [1], the EC50 was 63.1 to 316 nM. Further, the “cIAP1 BIR3 vs BIR2 separation window” value on cIAP1-BIR3 is given as “+++ (10,000>FS>1,000)”.

The IC50 is the concentration needed to halve the response being measured.
